According to ChEMBL document CHEMBL5291721, “A preclinical secondary pharmacology resource illuminates target-adverse drug reaction associations of marketed drugs” (Nat Commun, 2023):

Experiments:
[1] = target: T1, Alpha-2C adrenergic receptor (Homo sapiens, UniProt P18825); format: functional
T1 sequence (P18825 whole entry): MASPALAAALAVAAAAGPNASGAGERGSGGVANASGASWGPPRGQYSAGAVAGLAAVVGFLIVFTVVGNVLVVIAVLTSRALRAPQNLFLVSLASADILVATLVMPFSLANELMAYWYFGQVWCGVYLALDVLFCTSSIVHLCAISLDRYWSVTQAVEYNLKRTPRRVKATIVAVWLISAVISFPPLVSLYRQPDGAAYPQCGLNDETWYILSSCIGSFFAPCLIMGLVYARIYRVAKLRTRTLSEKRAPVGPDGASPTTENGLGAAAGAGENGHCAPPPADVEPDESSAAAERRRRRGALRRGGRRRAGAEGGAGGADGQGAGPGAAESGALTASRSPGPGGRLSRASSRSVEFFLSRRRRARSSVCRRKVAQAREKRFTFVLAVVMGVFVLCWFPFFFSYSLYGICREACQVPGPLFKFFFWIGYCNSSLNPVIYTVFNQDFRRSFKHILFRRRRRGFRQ

[2] = target: T2, Type-1 angiotensin II receptor (Homo sapiens, UniProt P30556)
T2 sequence (P30556 whole entry): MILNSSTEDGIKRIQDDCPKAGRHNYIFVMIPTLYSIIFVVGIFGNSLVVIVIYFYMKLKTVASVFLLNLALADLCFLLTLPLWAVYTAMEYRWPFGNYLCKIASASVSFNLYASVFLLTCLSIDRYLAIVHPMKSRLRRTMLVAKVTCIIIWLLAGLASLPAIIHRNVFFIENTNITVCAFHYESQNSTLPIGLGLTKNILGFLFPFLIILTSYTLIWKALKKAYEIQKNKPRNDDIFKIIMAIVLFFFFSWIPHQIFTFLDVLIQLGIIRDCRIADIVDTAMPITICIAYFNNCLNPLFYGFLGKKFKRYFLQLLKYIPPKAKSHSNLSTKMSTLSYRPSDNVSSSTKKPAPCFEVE

[3] = target: T3, Cholecystokinin receptor type A (Homo sapiens, UniProt P32238)
T3 sequence (P32238 whole entry): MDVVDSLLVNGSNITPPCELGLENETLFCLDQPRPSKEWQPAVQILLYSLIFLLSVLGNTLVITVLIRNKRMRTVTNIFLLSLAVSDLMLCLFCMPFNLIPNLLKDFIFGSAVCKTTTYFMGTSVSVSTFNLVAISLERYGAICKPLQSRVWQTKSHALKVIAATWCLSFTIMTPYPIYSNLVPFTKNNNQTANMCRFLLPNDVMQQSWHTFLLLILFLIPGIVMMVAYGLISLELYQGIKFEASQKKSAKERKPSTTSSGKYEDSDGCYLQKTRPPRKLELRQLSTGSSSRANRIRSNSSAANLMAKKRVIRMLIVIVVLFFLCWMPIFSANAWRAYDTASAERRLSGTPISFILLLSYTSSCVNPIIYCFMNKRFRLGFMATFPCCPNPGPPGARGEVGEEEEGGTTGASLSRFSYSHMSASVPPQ

[4] = target: T4, Muscarinic acetylcholine receptor M2 (Homo sapiens, UniProt P08172); format: functional, cell-based
T4 sequence (P08172 whole entry): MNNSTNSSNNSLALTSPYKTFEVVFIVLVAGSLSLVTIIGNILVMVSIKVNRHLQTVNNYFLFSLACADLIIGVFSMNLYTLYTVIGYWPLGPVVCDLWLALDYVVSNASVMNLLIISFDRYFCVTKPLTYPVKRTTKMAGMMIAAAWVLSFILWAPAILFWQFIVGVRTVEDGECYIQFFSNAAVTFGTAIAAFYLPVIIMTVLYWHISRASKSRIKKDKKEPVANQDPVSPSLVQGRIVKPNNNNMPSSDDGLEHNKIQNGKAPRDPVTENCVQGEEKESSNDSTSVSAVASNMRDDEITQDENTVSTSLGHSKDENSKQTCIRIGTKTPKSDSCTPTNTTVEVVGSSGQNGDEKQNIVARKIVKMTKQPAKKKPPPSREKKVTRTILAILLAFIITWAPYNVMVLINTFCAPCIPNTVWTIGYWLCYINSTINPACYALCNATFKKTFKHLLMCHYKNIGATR

[5] = target: Gamma-aminobutyric acid receptor subunit alpha-1 (Rattus norvegicus, UniProt P62813)
Chain of Gamma-aminobutyric acid receptor subunit alpha-1 (P62813 whole entry): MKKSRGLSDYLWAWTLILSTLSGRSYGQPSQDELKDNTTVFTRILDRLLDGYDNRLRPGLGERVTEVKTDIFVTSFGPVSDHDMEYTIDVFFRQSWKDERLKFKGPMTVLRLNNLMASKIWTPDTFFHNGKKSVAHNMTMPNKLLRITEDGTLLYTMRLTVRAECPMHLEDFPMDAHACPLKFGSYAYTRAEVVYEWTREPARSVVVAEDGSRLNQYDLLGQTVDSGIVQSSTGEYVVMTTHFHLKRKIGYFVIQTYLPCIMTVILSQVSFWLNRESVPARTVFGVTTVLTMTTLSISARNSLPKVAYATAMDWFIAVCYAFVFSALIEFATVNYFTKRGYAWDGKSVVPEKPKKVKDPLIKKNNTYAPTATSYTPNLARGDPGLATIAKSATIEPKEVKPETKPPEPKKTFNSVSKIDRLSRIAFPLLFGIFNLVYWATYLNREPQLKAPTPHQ

Histamine H2 receptor = Histamine H2 receptor (Homo sapiens, UniProt P25021); format: functional, cell-based
Chain of Histamine H2 receptor (P25021 whole entry): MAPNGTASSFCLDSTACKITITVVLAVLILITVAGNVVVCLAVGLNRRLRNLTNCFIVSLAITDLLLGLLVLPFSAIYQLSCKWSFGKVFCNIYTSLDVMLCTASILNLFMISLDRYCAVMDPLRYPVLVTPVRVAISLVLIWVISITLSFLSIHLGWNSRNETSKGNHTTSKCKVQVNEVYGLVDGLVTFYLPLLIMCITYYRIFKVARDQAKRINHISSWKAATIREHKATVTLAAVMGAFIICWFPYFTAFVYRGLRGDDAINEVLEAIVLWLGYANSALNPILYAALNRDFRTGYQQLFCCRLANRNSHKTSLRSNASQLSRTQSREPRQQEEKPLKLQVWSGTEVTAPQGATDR

[6] = target: T5, 5-hydroxytryptamine receptor 3A (Homo sapiens, UniProt P46098); format: functional
T5 sequence (P46098 whole entry): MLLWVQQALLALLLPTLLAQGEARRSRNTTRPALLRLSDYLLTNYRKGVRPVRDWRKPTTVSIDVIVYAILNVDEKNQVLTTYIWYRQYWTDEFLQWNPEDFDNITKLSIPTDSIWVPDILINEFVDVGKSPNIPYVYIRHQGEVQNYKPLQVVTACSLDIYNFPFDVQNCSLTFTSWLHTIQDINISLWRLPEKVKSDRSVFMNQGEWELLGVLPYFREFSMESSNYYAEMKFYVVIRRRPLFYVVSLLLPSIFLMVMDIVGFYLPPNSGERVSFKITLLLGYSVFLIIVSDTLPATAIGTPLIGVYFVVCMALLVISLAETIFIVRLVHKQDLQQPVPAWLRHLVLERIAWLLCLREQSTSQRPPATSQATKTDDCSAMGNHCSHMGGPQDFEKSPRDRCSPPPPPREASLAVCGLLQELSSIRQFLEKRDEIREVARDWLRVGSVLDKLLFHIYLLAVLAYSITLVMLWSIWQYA

Motilin receptor = Motilin receptor (Homo sapiens, UniProt O43193)
Chain of Motilin receptor (O43193 whole entry): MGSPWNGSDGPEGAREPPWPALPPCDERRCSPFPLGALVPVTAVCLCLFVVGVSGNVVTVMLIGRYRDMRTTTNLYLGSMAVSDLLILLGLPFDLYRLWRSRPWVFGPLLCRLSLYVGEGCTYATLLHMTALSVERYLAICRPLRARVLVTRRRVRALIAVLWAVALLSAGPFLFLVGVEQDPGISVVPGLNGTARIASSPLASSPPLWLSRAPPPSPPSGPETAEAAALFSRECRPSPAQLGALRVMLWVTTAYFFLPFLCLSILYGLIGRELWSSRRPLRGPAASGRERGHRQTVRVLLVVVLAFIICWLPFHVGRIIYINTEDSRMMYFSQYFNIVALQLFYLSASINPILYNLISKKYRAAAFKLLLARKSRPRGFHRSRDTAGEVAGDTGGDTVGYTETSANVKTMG

Thromboxane A2 receptor = target: T6, Thromboxane A2 receptor (Homo sapiens, UniProt P21731)
T6 sequence (P21731 whole entry): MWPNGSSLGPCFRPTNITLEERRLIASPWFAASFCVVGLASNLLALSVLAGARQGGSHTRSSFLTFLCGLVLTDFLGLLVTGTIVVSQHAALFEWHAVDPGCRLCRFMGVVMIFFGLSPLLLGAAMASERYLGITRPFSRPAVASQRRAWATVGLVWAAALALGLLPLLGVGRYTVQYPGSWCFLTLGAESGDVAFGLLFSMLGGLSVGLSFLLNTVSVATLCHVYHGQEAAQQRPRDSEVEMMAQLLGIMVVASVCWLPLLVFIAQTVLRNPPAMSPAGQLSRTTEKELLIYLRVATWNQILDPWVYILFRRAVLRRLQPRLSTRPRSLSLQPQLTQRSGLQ
Also: assay procedure not described here.

**Q.** Which results are given for CCCCOc1cc(C(=O)NCCN(CC)CC)c2ccccc2n1 [DIBUCAINE]?
**A.** AC50 [1]: > 10 µM; AC50 [2]: > 10 µM; AC50 [3]: > 30 µM; AC50 [4]: > 10 µM; AC50 [5]: > 30 µM; AC50 (Histamine H2 receptor): > 10 µM; AC50 [6]: > 30 µM; AC50 (Motilin receptor): > 30 µM; AC50 (Thromboxane A2 receptor): > 30 µM

**Q.** For CN[C@@H](C)[C@H](O)c1ccccc1 [EPHEDRINE], which AC50 [1] is on record?
**A.** > 10 µM

**Q.** And the AC50 [2]?
**A.** > 30 µM

**Q.** What about the AC50 [3] of the same compound?
**A.** > 30 µM

**Q.** What about the AC50 [4] of the same compound?
**A.** 17 µM

**Q.** What about the AC50 [5] of the same compound?
**A.** > 10 µM

**Q.** And the AC50 (Histamine H2 receptor)?
**A.** > 10 µM

**Q.** And the AC50 [6]?
**A.** > 30 µM

**Q.** And the AC50 (Motilin receptor)?
**A.** > 10 µM

**Q.** And the AC50 (Thromboxane A2 receptor)?
**A.** > 30 µM

**Q.** With C#CC1(OC(N)=O)CCCCC1 [ETHINAMATE] as the compound, how does the AC50 [1] read?
**A.** > 10 µM

**Q.** What about the AC50 [2] of the same compound?
**A.** > 30 µM

**Q.** And the AC50 [3]?
**A.** > 10 µM

**Q.** What about the AC50 [4] of the same compound?
**A.** > 10 µM

**Q.** And the AC50 [5]?
**A.** > 10 µM

**Q.** And the AC50 (Histamine H2 receptor)?
**A.** > 10 µM

**Q.** And the AC50 [6]?
**A.** > 30 µM

**Q.** And the AC50 (Motilin receptor)?
**A.** > 10 µM

**Q.** What about the AC50 (Thromboxane A2 receptor) of the same compound?
**A.** > 10 µM

**Q.** With CCNC(C)Cc1cccc(C(F)(F)F)c1 (centres undefined) [FENFLURAMINE] as the compound, how does the AC50 [2] read?
**A.** > 30 µM

**Q.** What about the AC50 [3] of the same compound?
**A.** > 30 µM

**Q.** What about the AC50 [4] of the same compound?
**A.** > 30 µM

**Q.** And the AC50 [5]?
**A.** > 10 µM

**Q.** And the AC50 [6]?
**A.** > 30 µM

**Q.** And the AC50 (Motilin receptor)?
**A.** > 10 µM

**Q.** What about the AC50 (Thromboxane A2 receptor) of the same compound?
**A.** > 30 µM

**Q.** What does the source list for CCC1(C2=CCCCCC2)C(=O)NC(=O)NC1=O [HEPTABARBITAL]?
**A.** AC50 [1]: > 10 µM; AC50 [2]: > 10 µM; AC50 [3]: > 10 µM; AC50 [4]: > 10 µM; AC50 [5]: > 10 µM; AC50 (Histamine H2 receptor): > 10 µM; AC50 [6]: > 30 µM; AC50 (Motilin receptor): > 10 µM; AC50 (Thromboxane A2 receptor): > 10 µM

**Q.** How did the AC50 [1] turn out when CN1CC[C@]23CCCC[C@H]2[C@H]1Cc1ccc(O)cc13 [LEVORPHANOL] was run?
**A.** > 30 µM

**Q.** And the AC50 [2]?
**A.** > 10 µM

**Q.** And the AC50 [3]?
**A.** > 10 µM

**Q.** What about the AC50 [4] of the same compound?
**A.** > 10 µM

**Q.** And the AC50 [5]?
**A.** > 10 µM

**Q.** And the AC50 (Histamine H2 receptor)?
**A.** > 30 µM

**Q.** What about the AC50 [6] of the same compound?
**A.** > 30 µM

**Q.** What about the AC50 (Motilin receptor) of the same compound?
**A.** > 10 µM

**Q.** What about the AC50 (Thromboxane A2 receptor) of the same compound?
**A.** > 10 µM

**Q.** CCN1CCC[C@H]1CNC(=O)c1cc(S(N)(=O)=O)ccc1OC [LEVOSULPIRIDE] was tested. Which AC50 [2] did it give?
**A.** > 30 µM

**Q.** And the AC50 [3]?
**A.** > 30 µM

**Q.** And the AC50 [4]?
**A.** > 10 µM

**Q.** And the AC50 [5]?
**A.** > 10 µM

**Q.** And the AC50 (Histamine H2 receptor)?
**A.** > 10 µM

**Q.** What about the AC50 [6] of the same compound?
**A.** > 30 µM

**Q.** And the AC50 (Motilin receptor)?
**A.** > 10 µM

**Q.** And the AC50 (Thromboxane A2 receptor)?
**A.** > 30 µM

**Q.** For COc1ccccc1OCC(O)COC(N)=O (centres undefined) [METHOCARBAMOL], which AC50 [1] is on record?
**A.** > 10 µM

**Q.** And the AC50 [2]?
**A.** > 30 µM

**Q.** And the AC50 [3]?
**A.** > 10 µM

**Q.** What about the AC50 [4] of the same compound?
**A.** > 10 µM

**Q.** And the AC50 [5]?
**A.** > 10 µM

**Q.** And the AC50 (Histamine H2 receptor)?
**A.** > 10 µM

**Q.** What about the AC50 [6] of the same compound?
**A.** > 30 µM

**Q.** What about the AC50 (Motilin receptor) of the same compound?
**A.** > 10 µM

**Q.** And the AC50 (Thromboxane A2 receptor)?
**A.** > 10 µM

**Q.** What does the source list for CCN(CC)CCOC(=O)c1ccc(N)cc1 [PROCAINE]?
**A.** AC50 [1]: > 10 µM; AC50 [2]: > 30 µM; AC50 [3]: > 30 µM; AC50 [4]: > 10 µM; AC50 [5]: > 10 µM; AC50 (Histamine H2 receptor): > 10 µM; AC50 [6]: 22 µM; AC50 (Motilin receptor): > 10 µM

**Q.** What does the source list for Cc1c(C(=O)Nc2ccc(N3C[C@@H](C)O[C@@H](C)C3)nc2)cccc1-c1ccc(OC(F)(F)F)cc1 [SONIDEGIB]?
**A.** AC50 [1]: > 10 µM; AC50 [2]: > 30 µM; AC50 [3]: > 30 µM; AC50 [5]: > 10 µM; AC50 [6]: > 10 µM; AC50 (Motilin receptor): > 10 µM; AC50 (Thromboxane A2 receptor): > 30 µM
